The text below walks through data of ChEMBL document CHEMBL6109104, “Synthesis and antibacterial evaluations of novel vancomycin analogues targeting bacteria membrane to combat Gram-negative infections” (Eur J Med Chem, 2025).

Series [1] concerns Staphylococcus aureus. The series is described as follows: Antibacterial activity against methicillin-resistant Staphylococcus aureus USA300 incubated for 16 to 18 hrs by muller hinton broth based microplate reader analysis. Conditions: time 16-18 hrs. The format is functional.
The subject of series [2] is Staphylococcus aureus. Kind of series: Antibacterial activity vancomycin-intermediate resistant Staphylococcus aureus incubated for 16 to 18 hrs by muller hinton broth based microplate reader analysis. The class given is functional. Conditions: time 16-18 hrs.
The subject of series [3] is Acinetobacter baumannii. The series is described as follows: Antibacterial activity against Acinetobacter baumannii ATCC17978 incubated for 16 to 18 hrs by muller hinton broth based microplate reader analysis. The class given is functional. The following applies: time 16-18 hrs.
Series [4] has as its system Acinetobacter baumannii. Kind of series: Antibacterial activity against Acinetobacter baumannii ATCC19606 incubated for 16 to 18 hrs by muller hinton broth based microplate reader analysis. The class given is functional. Conditions: time 16-18 hrs.
Series [5] deals with Acinetobacter baumannii. The series is described as follows: Antibacterial activity against Acinetobacter baumannii ATCC17978 assessed as bactericidal rate by measuring bacterial count at 8 times MIC incubated for 4 hrs by muller-hinton agar based time-kill kinetics assay. The format is functional, organism-based.
In series [6] the test system is Acinetobacter baumannii. Kind of series: Antibacterial activity against Acinetobacter baumannii ATCC17978 infected in neutropenic thigh infection Kunming mouse model assessed as reduction in bacterial survival at 10 mg/kg, sc pretreated with bacteria for 2 hrs followed by compound addition and measured after 16 hrs. The format is functional, organism-based.
In series [7] the test system is HEK-293T. Kind of series: Cytotoxicity against HEK293T cells at 0.5 uM incubated for 72 hrs by MTT assay relative to control. The following applies: human. The class given is toxicity, cell-based.
Series [8] concerns HEK-293T. The series is described as follows: Cytotoxicity against HEK293T cells at 1.0 uM incubated for 72 hrs by MTT assay relative to control. The class given is toxicity, cell-based. The following applies: human. On the technique in general: Tetrazolium dyes change colour on reduction, which living cells bring about.
In series [9] the test system is Escherichia coli. The series is described as follows: Antibacterial activity against Escherichia coli ATCC25922 incubated for 16 to 18 hrs by muller hinton broth based microplate reader analysis. Conditions: time 16-18 hrs. The format is functional.
Series [10] relates to Escherichia coli. The series is described as follows: Antibacterial activity against Escherichia coli ATCC35150 incubated for 16 to 18 hrs by muller hinton broth based microplate reader analysis. The class given is functional. Conditions: time 16-18 hrs.
In series [11] the test system is Acinetobacter baumannii. Kind of series: Antibacterial activity against Acinetobacter baumannii ATCC17978 infected in neutropenic thigh infection Kunming mouse model assessed as reduction in bacterial load in thigh at 20 mg/kg, sc pretreated with bacteria for 2 hrs followed by compound addition and measured after 16 hrs. The class given is functional, organism-based.

Converted amounts (≈) assume the structure as drawn. The source made the active and inactive calls. No cut-off for these calls is given here.

In general, MIC refers to the lowest concentration that inhibits growth of the organism. Read a high MIC as a need for much substance. For the compound `O=C(O)c1cn(C2CC2)c2cc(N3CCNCC3)c(F)cc2c1=O` [CIPROFLOXACIN], the MIC in [1] came out at 0.25 µg/mL (≈ 0.754 µM); in series [2], 1 µg/mL (≈ 3.02 µM); in series [3], 0.5 µg/mL (≈ 1.51 µM); in [4], 1 µg/mL (≈ 3.02 µM). Moreover, the result in [5] and in [6] was Active.

In the case of `COc1cccc2c1C(=O)c1c(O)c3c(c(O)c1C2=O)C[C@@](O)(C(=O)CO)C[C@@H]3O[C@H]1C[C@H](N)[C@H](O)[C@H](C)O1` [DOXORUBICIN], the values for the Activity in series [7] and in series [8] were 27.3% and 85.6%, respectively.

Take `CN[C@H](CC(C)C)C(=O)N[C@H]1C(=O)N[C@@H](CC(N)=O)C(=O)N[C@H]2C(=O)N[C@H]3C(=O)N[C@H](C(=O)N[C@H](C(=O)O)c4cc(O)cc(O)c4-c4cc3ccc4O)[C@H](O)c3ccc(c(Cl)c3)Oc3cc2cc(c3O[C@@H]2O[C@H](CO)[C@@H](O)[C@H](O)[C@H]2O[C@H]2C[C@](C)(N)[C@H](O)[C@H](C)O2)Oc2ccc(cc2Cl)[C@H]1O` [VANCOMYCIN]: the MIC in [9], in [10], in [3] and in series [4] was more than 128 µg/mL in each case. In addition, the outcome in [11] was inactive.

For the compound `CCCCCCCCCCCCCC[N+]1(C)CCN(C(=O)[C@H]2NC(=O)[C@H]3NC(=O)[C@H](NC(=O)[C@@H]4NC(=O)[C@H](CC(N)=O)NC(=O)[C@H](NC(=O)[C@@H](CC(C)C)NC)[C@H](O)c5ccc(c(Cl)c5)Oc5cc4cc(c5O[C@@H]4O[C@H](CO)[C@@H](O)[C@H](O)[C@H]4O[C@H]4C[C@](C)(N)[C@H](O)[C@H](C)O4)Oc4ccc(cc4Cl)[C@H]3O)c3ccc(O)c(c3)-c3c(O)cc(O)cc32)CC1.[Br-]` (stereo in doubt), the MIC in [1] came to 1 µg/mL; in series [2], 32 µg/mL; in [9], 32 µg/mL; in series [10], 32 µg/mL; in [3], 32 µg/mL; in [4], 32 µg/mL.

For `CN[C@H](CC(C)C)C(=O)N[C@H]1C(=O)N[C@@H](CC(N)=O)C(=O)N[C@H]2C(=O)N[C@H]3C(=O)N[C@H](C(=O)N[C@H](C(=O)O)c4cc(O)cc(O)c4-c4cc3ccc4O)[C@H](O)c3ccc(c(Cl)c3)Oc3cc2cc(c3O[C@@H]2O[C@H](CO)[C@@H](O)[C@H](O)[C@H]2O[C@H]2C[C@](C)(NC(=O)CCCCCCCCCCC[n+]3cccc(O)c3)[C@H](O)[C@H](C)O2)Oc2ccc(cc2Cl)[C@H]1O.[Br-]`, the MIC is 8 µg/mL in [1]; 64 µg/mL in [2]; more than 128 µg/mL in series [9]; more than 128 µg/mL in [10]; more than 128 µg/mL in series [3]; more than 128 µg/mL in series [4].

In the case of `CCCCCCCCCCCCCCCCCC[N+]1(C)CCN(C(=O)[C@H]2NC(=O)[C@H]3NC(=O)[C@H](NC(=O)[C@@H]4NC(=O)[C@H](CC(N)=O)NC(=O)[C@H](NC(=O)[C@@H](CC(C)C)NC)[C@H](O)c5ccc(c(Cl)c5)Oc5cc4cc(c5O[C@@H]4O[C@H](CO)[C@@H](O)[C@H](O)[C@H]4O[C@H]4C[C@](C)(N)[C@H](O)[C@H](C)O4)Oc4ccc(cc4Cl)[C@H]3O)c3ccc(O)c(c3)-c3c(O)cc(O)cc32)CC1.[Br-]` (stereo in doubt), the MIC is 1 µg/mL in series [1]; 64 µg/mL in [2]; more than 128 µg/mL in [9]; more than 128 µg/mL in series [10]; more than 128 µg/mL in [3]; more than 128 µg/mL in [4].

Take `CN[C@H](CC(C)C)C(=O)N[C@H]1C(=O)N[C@@H](CC(N)=O)C(=O)N[C@H]2C(=O)N[C@H]3C(=O)N[C@H](C(=O)N[C@H](C(=O)O)c4cc(O)cc(O)c4-c4cc3ccc4O)[C@H](O)c3ccc(c(Cl)c3)Oc3cc2cc(c3O[C@@H]2O[C@H](CO)[C@@H](O)[C@H](O)[C@H]2O[C@H]2C[C@](C)(NC(=O)CCCCCCCCCCC[n+]3ccccc3)[C@H](O)[C@H](C)O2)Oc2ccc(cc2Cl)[C@H]1O.[Br-]`: the MIC was 4 µg/mL in [1]; 64 µg/mL in series [2]; more than 128 µg/mL in series [9]; more than 128 µg/mL in series [10]; more than 128 µg/mL in series [3]; more than 128 µg/mL in series [4].

As for `CCCCCCCCCCCC[N+]1(C)CCN(C(=O)c2ccc(CN[C@@]3(C)C[C@H](O[C@H]4[C@H](Oc5c6cc7cc5Oc5ccc(cc5Cl)[C@@H](O)[C@@H](NC(=O)[C@@H](CC(C)C)NC)C(=O)N[C@@H](CC(N)=O)C(=O)N[C@H]7C(=O)N[C@H]5C(=O)N[C@H](C(=O)N[C@H](C(=O)O)c7cc(O)cc(O)c7-c7cc5ccc7O)[C@H](O)c5ccc(c(Cl)c5)O6)O[C@H](CO)[C@@H](O)[C@@H]4O)O[C@@H](C)[C@H]3O)cc2)CC1.[Br-]`, the MIC in [1] was 2 µg/mL; in [2], 64 µg/mL; in series [9], more than 128 µg/mL; in series [10], more than 128 µg/mL; in [3], 32 µg/mL; in [4], 16 µg/mL.

Take `CN[C@H](CC(C)C)C(=O)N[C@H]1C(=O)N[C@@H](CC(N)=O)C(=O)N[C@H]2C(=O)N[C@H]3C(=O)N[C@H](C(=O)N[C@H](C(=O)N4CCN(C)CC4)c4cc(O)cc(O)c4-c4cc3ccc4O)[C@H](O)c3ccc(c(Cl)c3)Oc3cc2cc(c3O[C@@H]2O[C@H](CO)[C@@H](O)[C@H](O)[C@H]2O[C@H]2C[C@](C)(N)[C@H](O)[C@H](C)O2)Oc2ccc(cc2Cl)[C@H]1O` (stereo in doubt): the MIC is 4 µg/mL (≈ 2.61 µM) in series [1]; more than 128 µg/mL in series [2]; more than 128 µg/mL in series [9]; more than 128 µg/mL in series [10]; more than 128 µg/mL in series [3]; more than 128 µg/mL in series [4].

On to `CCCCCCCCCC[N+]1(C)CCN(C(=O)c2ccc(CN[C@@]3(C)C[C@H](O[C@H]4[C@H](Oc5c6cc7cc5Oc5ccc(cc5Cl)[C@@H](O)[C@@H](NC(=O)[C@@H](CC(C)C)NC)C(=O)N[C@@H](CC(N)=O)C(=O)N[C@H]7C(=O)N[C@H]5C(=O)N[C@H](C(=O)N[C@H](C(=O)O)c7cc(O)cc(O)c7-c7cc5ccc7O)[C@H](O)c5ccc(c(Cl)c5)O6)O[C@H](CO)[C@@H](O)[C@@H]4O)O[C@@H](C)[C@H]3O)cc2)CC1.[Br-]`, for which the MIC in [1] is 1 µg/mL; in [2], 64 µg/mL; in series [9] it was 64 µg/mL; in [10], 64 µg/mL; in [3], more than 128 µg/mL; in series [4], 64 µg/mL.

For the compound `CN[C@H](CC(C)C)C(=O)N[C@H]1C(=O)N[C@@H](CC(N)=O)C(=O)N[C@H]2C(=O)N[C@H]3C(=O)N[C@H](C(=O)N[C@H](C(=O)O)c4cc(O)cc(O)c4-c4cc3ccc4O)[C@H](O)c3ccc(c(Cl)c3)Oc3cc2cc(c3O[C@@H]2O[C@H](CO)[C@@H](O)[C@H](O)[C@H]2O[C@H]2C[C@](C)(NC(=O)CCCCCCCCCCC[n+]3cccc(Br)c3)[C@H](O)[C@H](C)O2)Oc2ccc(cc2Cl)[C@H]1O.[Br-]`, the MIC in [1] was 4 µg/mL; in series [2] it was 32 µg/mL; in series [9], more than 128 µg/mL; in series [10], more than 128 µg/mL; in [3], more than 128 µg/mL; in [4], more than 128 µg/mL.

In the case of `CN[C@H](CC(C)C)C(=O)N[C@H]1C(=O)N[C@@H](CC(N)=O)C(=O)N[C@H]2C(=O)N[C@H]3C(=O)N[C@H](C(=O)N[C@H](C(=O)O)c4cc(O)cc(O)c4-c4cc3ccc4O)[C@H](O)c3ccc(c(Cl)c3)Oc3cc2cc(c3O[C@@H]2O[C@H](CO)[C@@H](O)[C@H](O)[C@H]2O[C@H]2C[C@](C)(NC(=O)CCCCCCCCCCC[n+]3cccc(F)c3)[C@H](O)[C@H](C)O2)Oc2ccc(cc2Cl)[C@H]1O.[Br-]`, the MIC in series [1] is 4 µg/mL; in [2], 64 µg/mL; in series [9] it was more than 128 µg/mL; in series [10] it was more than 128 µg/mL; in series [3], more than 128 µg/mL; in series [4], more than 128 µg/mL.

In the case of `CN[C@H](CC(C)C)C(=O)N[C@H]1C(=O)N[C@@H](CC(N)=O)C(=O)N[C@H]2C(=O)N[C@H]3C(=O)N[C@H](C(=O)N[C@H](C(=O)O)c4cc(O)cc(O)c4-c4cc3ccc4O)[C@H](O)c3ccc(c(Cl)c3)Oc3cc2cc(c3O[C@@H]2O[C@H](CO)[C@@H](O)[C@H](O)[C@H]2O[C@H]2C[C@](C)(NC(=O)CCCCCCCCCCC[n+]3ccc(N)cc3)[C@H](O)[C@H](C)O2)Oc2ccc(cc2Cl)[C@H]1O.O=C(O)C(F)(F)F.[Br-]`, the minimum inhibitory concentration (MIC) in [1] is 1 µg/mL; in [2] it was 32 µg/mL; in series [9], more than 128 µg/mL; in series [10] it was more than 128 µg/mL; in series [3], more than 128 µg/mL; in series [4], more than 128 µg/mL.

On to `CCCCCCCCCC[N+]1(C)CCN(C(=O)[C@H]2NC(=O)[C@H]3NC(=O)[C@H](NC(=O)[C@@H]4NC(=O)[C@H](CC(N)=O)NC(=O)[C@H](NC(=O)[C@@H](CC(C)C)NC)[C@H](O)c5ccc(c(Cl)c5)Oc5cc4cc(c5O[C@@H]4O[C@H](CO)[C@@H](O)[C@H](O)[C@H]4O[C@H]4C[C@](C)(N)[C@H](O)[C@H](C)O4)Oc4ccc(cc4Cl)[C@H]3O)c3ccc(O)c(c3)-c3c(O)cc(O)cc32)CC1.[Br-]` (stereo in doubt), for which the MIC in series [1] was determined as 1 µg/mL; in series [2], 1 µg/mL; in series [9] it was 16 µg/mL; in [10], 16 µg/mL; in [3] it was 32 µg/mL; in series [4] it was 32 µg/mL.
